We go through 20 compounds from US11400081B2, “Compounds” (The University of Sheffield, priority 2017, dated 2022).

The target in the test is T1, AM2 receptor (CALCRL+RAMP3) (Homo sapiens, UniProt O60896+Q16602).
T1 construct: host or cells: 1321N1
Kind of test: AM2 receptor inhibition, LANCE TR-FRET cAMP agonist-antagonist competition assay. It counts as cell-based. Particulars: inhibition of AM induced cAMP activation; 1321N1 cells transfected with CALCRL+RAMP3; read-out: AM2 pIC50 (converted). Here is the method:
Compounds were assessed for their ability to inhibit ligand-induced elevations of cAMP, using the Perkin Elmer LANCE cAMP assay using commercially-available cells expressing a specific receptor of interest using the following general procedure:
Compounds were prepared in dimethyl sulfoxide (DMSO—99.9% pure) (Sigma Aldrich, Cat #: D4540) added to powder stocks to produce a 20 mM solution (100% DMSO) that was sonicated at 37° C. for 10 minutes to fully dissolve the compounds. The 20 mM stocks were diluted further in DMSO to produce a 2 mM solution that was sonicated at 37° C. for 10 minutes. 2 mM stocks were dissolved in assay/stimulation buffer to produce a 400 μM solution that was sonicated at 37° C. for 10 minutes for all cAMP assays. All stocks were stored at −20° C. Then serial dilution (Dilution factor 10) was performed to achieve the desire experimental concentrations.
Competition assays were performed according to the manufactures instructions using LANCE® TR-FRET cAMP assay kit (Perkin Elmer, Cat #: AD0264). Serial dilutions (3 μl/well) of the molecules were plated in a 384-well OptiPlate (Perkin Elmer, Cat #: 6007299) in duplicates. Appropriate controls (100% stimulation: Forskolin and 0% stimulation: Vehicle control) (6 μl/well) were included in each plate for data normalization. Following the compound addition, 6 μl of G-protein coupled receptor overexpressing cells/Alexa Fluor antibody solution (1:100 dilution) was added in each well at a desired density of 2500 cells/well. The overexpressing cell lines were purchased from DiscoveRx, Birmingham, UK. After spinning the plate at 1000 rpm for 1 minute and vortexing briefly, the cells were pre-incubated with the compounds for 30 minutes at room temperature (covered). Then 3 μl of the equivalent peptide ligand (EC50 dose) was added to all the wells except vehicle and forskolin controls. The plate were then spun down at 1000 rpm for 1 minute and once finished they were vortexed briefly and covered. Cells were stimulated in the presence of the ligands for 15 minutes at room temperature. After stimulation 12 μl of detection mix (Europium-Chelate streptavidin/biotinylated cAMP tracer solution) was added to all wells and incubated for 60 minutes at room temperature. The plate was then read on the Enspire multimode Plate reader (Perkin Elmer), at; 320/340 nm excitation and 615/665 nm emission was recorded.
• 28 mL Hank's Balanced salt solution (+MgCl2, +CaCl2)—(Thermo Fisher Cat #:14170112) • 150 μl HEPES (1M)—(Thermo Fisher Cat #:15630080) • 400 μl Stabilizer (DTPA) Purified BSA (7.5%)—(Perkin Elmer, Cat #: CR84-100) • 60 μl IBMX (250 mM)—(Sigma Aldrich, Cat #: 15879) Specific cAMP/Agonist-Antagonist Competition Assays
The ability of a compound to inhibit the AM induced cAMP activation in AM2 receptor-expressing cells (1321N1 cells transfected with CALCRL+RAMP3, sourced from DiscoverX catalogue number 95-0169C6) was assessed using the protocol above.

T1 sequence (Q16602 23-461): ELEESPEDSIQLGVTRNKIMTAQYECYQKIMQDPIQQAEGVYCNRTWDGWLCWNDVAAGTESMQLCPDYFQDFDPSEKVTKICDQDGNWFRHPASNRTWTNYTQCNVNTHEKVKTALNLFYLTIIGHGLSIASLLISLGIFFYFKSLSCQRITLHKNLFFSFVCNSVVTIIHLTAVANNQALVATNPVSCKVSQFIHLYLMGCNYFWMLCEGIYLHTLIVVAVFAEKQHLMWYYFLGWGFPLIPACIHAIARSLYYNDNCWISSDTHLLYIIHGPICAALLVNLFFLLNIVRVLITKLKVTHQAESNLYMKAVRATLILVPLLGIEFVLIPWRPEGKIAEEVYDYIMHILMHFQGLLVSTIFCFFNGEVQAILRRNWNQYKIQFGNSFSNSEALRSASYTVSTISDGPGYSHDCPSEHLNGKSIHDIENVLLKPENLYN
T1 sequence (O60896 24-148): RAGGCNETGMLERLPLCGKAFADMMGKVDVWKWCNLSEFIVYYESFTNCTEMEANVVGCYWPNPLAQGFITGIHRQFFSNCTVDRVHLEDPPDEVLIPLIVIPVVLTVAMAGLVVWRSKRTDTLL

`CC(C)(C)C(=O)N(CC(=O)Nc1ccc2c(c1)CC1(C2)C(=O)Nc2ncccc21)Cc1ccccc1CNCC(F)F` (centres unmarked) [Example 3, N-(2-(((2,2-Difluoroethyl)amino)methyl)benzyl)-N-(2-oxo-2-((2′-oxo-1,1′,2′,3-tetrahydrospiro[indene-2,3′-pyrrolo[2,3-b]pyridine]-5-yl)amino)ethyl)pivalamide]: the IC50 is 324 nM.

`CC(C)(C)C(=O)N(CC(=O)Nc1ccc2c(c1)CC1(C2)C(=O)Nc2ncccc21)Cc1ccccc1CN1CCCC1` (centres unmarked) [Example 4, N-(2-Oxo-2-((2′-oxo-1,1′,2′,3-tetrahydrospiro[indene-2,3′-pyrrolo[2,3-b]pyridine]-5-yl)amino)ethyl)-N-(2-(pyrrolidin-1-ylmethyl)benzyl)pivalamide]: the IC50 is 60.3 nM.

On to `CC(C)(C)C(=O)N(CC(=O)Nc1ccc2c(c1)CC1(C2)C(=O)Nc2ncccc21)Cc1ccccc1CNCC(F)(F)F` (centres unmarked) [Example 6, N-(2-Oxo-2-((2′-oxo-1,1′,2′,3-tetrahydrospiro[indene-2,3′-pyrrolo[2,3-b]pyridine]-5-yl)amino)ethyl)-N-(2-(((2,2,2-trifluoroethyl)amino)methyl)benzyl)pivalamide], for which the IC50 was 513 nM.

Turning to `CN(C)CCNCc1ccccc1CN(CC(=O)Nc1ccc2c(c1)CC1(C2)C(=O)Nc2ncccc21)C(=O)C(C)(C)C` (centres unmarked) [Example 7, N-(2-(((2-(Dimethylamino)ethyl)amino)methyl)benzyl)-N-(2-oxo-2-((2′-oxo-1,1′,2′,3-tetrahydrospiro[indene-2,3′-pyrrolo[2,3-b]pyridine]-5-yl)amino)ethyl)pivalamide], the IC50 is 126 nM.

With `CC(C)(C)C(=O)N(CC(=O)Nc1ccc2c(c1)CC1(C2)C(=O)Nc2ncccc21)Cc1ccccc1CNCC1CC1` (centres unmarked) [Example 8, N-(2-(((Cyclopropylmethyl)amino)methyl)benzyl)-N-(2-oxo-2-((2′-oxo-1,1′,2′,3-tetrahydrospiro[indene-2,3′-pyrrolo[2,3-b]pyridine]-5-yl)amino)ethyl)pivalamide], the IC50 is 166 nM.

As to `CC(C)(C)C(=O)N(CC(=O)Nc1ccc2c(c1)CC1(C2)C(=O)Nc2ncccc21)Cc1ccccc1CNCc1ncc[nH]1` (centres unmarked) [Example 9, N-(2-((((1H-Imidazol-2-yl)methyl)amino)methyl)benzyl)-N-(2-oxo-2-((2′-oxo-1,1′,2′,3-tetrahydrospiro[indene-2,3′-pyrrolo[2,3-b]pyridine]-5-yl)amino)ethyl)pivalamide], the IC50 was 240 nM.

For the compound `CC(C)(C)C(=O)N(CC(=O)Nc1ccc2c(c1)CC1(C2)C(=O)Nc2ncccc21)Cc1ccccc1CN1CC(F)C1` (centres unmarked) [Example 10, N-(2-((3-Fluoroazetidin-1-yl)methyl)benzyl)-N-(2-oxo-2-((2′-oxo-1,1′,2′,3-tetrahydrospiro[indene-2,3′-pyrrolo[2,3-b]pyridin]-5-yl)amino)ethyl)pivalamide], the IC50 was 91.2 nM.

Turning to `CC(C)(C)C(=O)N(CC(=O)Nc1ccc2c(c1)CC1(C2)C(=O)Nc2ncccc21)Cc1ccccc1CN1CC(F)(F)C1` (centres unmarked) [Example 11, N-(2-((3,3-Difluoroazetidin-1-yl)methyl)benzyl)-N-(2-oxo-2-((2′-oxo-1,1′,2′,3-tetrahydrospiro[indene-2,3′-pyrrolo[2,3-b]pyridin]-5-yl)amino)ethyl)pivalamide], the IC50 was 398 nM.

Consider `CN(C)CCCNCc1ccccc1CN(CC(=O)Nc1ccc2c(c1)CC1(C2)C(=O)Nc2ncccc21)C(=O)C(C)(C)C` (centres unmarked) [Example 12, N-(2-(((3-(Dimethylamino)propyl)amino)methyl)benzyl)-N-(2-oxo-2-((2′-oxo-1,1′,2′,3-tetrahydrospiro[indene-2,3′-pyrrolo[2,3-b]pyridin]-5-yl)amino)ethyl)pivalamide], for which the IC50 is 186 nM.

For the compound `CC(C)(C)C(=O)N(CC(=O)Nc1ccc2c(c1)CC1(C2)C(=O)Nc2ncccc21)Cc1ccccc1CNCCO` (centres unmarked) [Example 13, N-(2-(((2-Hydroxyethyl)amino)methyl)benzyl)-N-(2-oxo-2-((2′-oxo-1,1′,2′,3-tetrahydrospiro[indene-2,3′-pyrrolo[2,3-b]pyridin]-5-yl)amino)ethyl)pivalamide], the IC50 was 33.1 nM.

For `CC(C)(C)C(=O)N(CC(=O)Nc1ccc2c(c1)CC1(C2)C(=O)Nc2ncccc21)Cc1ccccc1CNCCF` (centres unmarked) [Example 17, N-(2-(((2-Fluoroethyl)amino)methyl)benzyl)-N-(2-oxo-2-((2′-oxo-1,1′,2′,3-tetrahydrospiro[indene-2,3′-pyrrolo[2,3-b]pyridin]-5-yl)amino)ethyl)pivalamide], the IC50 is 12.3 nM.

On to `COCCNCc1ccccc1CN(CC(=O)Nc1ccc2c(c1)CC1(C2)C(=O)Nc2ncccc21)C(=O)C(C)(C)C` (centres unmarked) [Example 18, N-(2-(((2-Methoxyethyl)amino)methyl)benzyl)-N-(2-oxo-2-((2′-oxo-1,1′,2′,3-tetrahydrospiro[indene-2,3′-pyrrolo[2,3-b]pyridin]-5-yl)amino)ethyl)pivalamide], for which the IC50 was 33.1 nM.

In the case of `CC(C)NCc1ccccc1CN(CC(=O)Nc1ccc2c(c1)CC1(C2)C(=O)Nc2ncccc21)C(=O)C(C)(C)C` (centres unmarked) [Example 19, N-(2-((Isopropylamino)methyl)benzyl)-N-(2-oxo-2-((2′-oxo-1,1′,2′,3-tetrahydrospiro[indene-2,3′-pyrrolo[2,3-b]pyridin]-5-yl)amino)ethyl)pivalamide], the IC50 was 89.1 nM.

For the compound `CC(C)(C)C(=O)N(CC(=O)Nc1ccc2c(c1)CC1(C2)C(=O)Nc2ncccc21)Cc1ccccc1CNC1CCC1` (centres unmarked) [Example 20, N-(2-((Cyclobutylamino)methyl)benzyl)-N-(2-oxo-2-((2′-oxo-1,1′,2′,3-tetrahydrospiro[indene-2,3′-pyrrolo[2,3-b]pyridin]-5-yl)amino)ethyl)pivalamide], the IC50 was 105 nM.

For `CNC(C)c1ccccc1CN(CC(=O)Nc1ccc2c(c1)CC1(C2)C(=O)Nc2ncccc21)C(=O)C(C)(C)C` (centres unmarked) [Example 23, N-(2-(1-(Methylamino)ethyl)benzyl)-N-(2-oxo-2-((2′-oxo-1,1′,2′,3-tetrahydrospiro[indene-2,3′-pyrrolo[2,3-b]pyridin]-5-yl)amino)ethyl)pivalamide], the IC50 was 13.2 nM.

Consider `CC(c1ccccc1CN(CC(=O)Nc1ccc2c(c1)CC1(C2)C(=O)Nc2ncccc21)C(=O)C(C)(C)C)N(C)C` (centres unmarked) [Example 24, N-(2-(1-(Dimethylamino)ethyl)benzyl)-N-(2-oxo-2-((2′-oxo-1,1′,2′,3-tetrahydrospiro[indene-2,3′-pyrrolo[2,3-b]pyridin]-5-yl)amino)ethyl)pivalamide], for which the IC50 was 34.7 nM.

For `CC(c1ccccc1CN(CC(=O)Nc1ccc2c(c1)CC1(C2)C(=O)Nc2ncccc21)C(=O)C(C)(C)C)N1CCC1` (centres unmarked) [Example 25, N-(2-(1-(Azetidin-1-yl)ethyl)benzyl)-N-(2-oxo-2-((2′-oxo-1,1′,2′,3-tetrahydrospiro[indene-2,3′-pyrrolo[2,3-b]pyridin]-5-yl)amino)ethyl)pivalamide], the IC50 is 75.9 nM.

Consider `CCNCc1ccccc1CN(CC(=O)Nc1ccc2c(c1)CC1(C2)C(=O)Nc2ncccc21)C(=O)C(C)(C)C` (centres unmarked) [Example 27, N-(2-((Ethylamino)methyl)benzyl)-N-(2-oxo-2-((2′-oxo-1,1′,2′,3-tetrahydrospiro[indene-2,3′-pyrrolo[2,3-b]pyridin]-5-yl)amino)ethyl)pivalamide], for which the IC50 is 30.2 nM.

Turning to `C=CCN(CC=C)CCc1ccccc1CN(CC(=O)Nc1ccc2c(c1)CC1(C2)C(=O)Nc2ncccc21)C(=O)C(C)(C)C` (centres unmarked) [Example 28, N-(2-(2-(Diallylamino)ethyl)benzyl)-N-(2-oxo-2-((2′-oxo-1,1′,2′,3-tetrahydrospiro[indene-2,3′-pyrrolo[2,3-b]pyridin]-5-yl)amino)ethyl)pivalamide], the IC50 was 490 nM.

Regarding `CN(C)Cc1ccccc1CN(CC(=O)Nc1ccc2c(c1)CC1(C2)C(=O)Nc2ncccc21)C(=O)C(C)(C)C` (centres unmarked) [Example 30, N-(2-((Dimethylamino)methyl)benzyl)-N-(2-oxo-2-((2′-oxo-1,1′,2′,3-tetrahydrospiro[indene-2,3′-pyrrolo[2,3-b]pyridin]-5-yl)amino)ethyl)pivalamide], the IC50 is 29.5 nM.
